Results reported in patent US12233161B1, “Lipids and lipid nanoparticle formulations” (LONGUIDE BIOPHARMA CORPORATION, priority 2024, dated 2025).

Tested on: mice
Test: In vivo delivery of FLuc-mRNA lipid nanoparticles in mice, in vivo imaging (IVIS)
Conditions: Fluc-mRNA LNP
Procedure: After the preparation was completed, the preparation was injected intramuscularly (mice rectus femoris muscle of the thigh), intravenously (mice tail vein), or intraperitoneal injection or subcutaneous injection (subcutaneous on the back), with approximately 75 μL per mouse, for a total of 3 mice. After a certain time of injection, in vivo imaging (PerkinElmer, IVIS Lumina III) was performed. 10-15 minutes before imaging, 200 μL of 15 mg/mL D-Luciferin working solution was injected intraperitoneally, and the imaging analysis was performed using an in vivo imager.

[1] = route IM, organ not given, formulation, molar ratio and N/P as in the table
[2] = route IV, organ: body, formulation, molar ratio and N/P as in the table
[3] = route IV, organ: liver, formulation, molar ratio and N/P as in the table
[4] = route IV, organ: lung, formulation, molar ratio and N/P as in the table
[5] = route IV, organ: spleen, formulation, molar ratio and N/P as in the table
[6] = route IM, organ: liver, formulation, molar ratio and N/P as in the table
[7] = route IM, organ: lung, formulation, molar ratio and N/P as in the table
[8] = route IM, organ: muscle, formulation, molar ratio and N/P as in the table
[9] = route IM, organ: spleen, formulation, molar ratio and N/P as in the table
[10] = route IM, 1 h (live), DSPE-PEG5000:DSPC:Chol:compound 1.40:11.15:38.95:48.50, N/P 30
[11] = route IM, 1 h (lung), DSPE-PEG5000:DSPC:Chol:compound 1.40:11.15:38.95:48.50, N/P 30
[12] = route IM, 1 h (muscle), DSPE-PEG5000:DSPC:Chol:compound 1.40:11.15:38.95:48.50, N/P 30
[13] = route IM, 1 h (spleen), DSPE-PEG5000:DSPC:Chol:compound 1.40:11.15:38.95:48.50, N/P 30
[14] = route IM, 2 h (live), DSPE-PEG5000:DSPC:Chol:compound 1.40:11.15:38.95:48.50, N/P 30
[15] = route IM, 2 h (lung), DSPE-PEG5000:DSPC:Chol:compound 1.40:11.15:38.95:48.50, N/P 30
[16] = route IM, 2 h (muscle), DSPE-PEG5000:DSPC:Chol:compound 1.40:11.15:38.95:48.50, N/P 30
[17] = route IM, 2 h (spleen), DSPE-PEG5000:DSPC:Chol:compound 1.40:11.15:38.95:48.50, N/P 30
[18] = route IM, 3 h (live), DSPE-PEG5000:DSPC:Chol:compound 1.40:11.15:38.95:48.50, N/P 30
[19] = route IM, 3 h (lung), DSPE-PEG5000:DSPC:Chol:compound 1.40:11.15:38.95:48.50, N/P 30
[20] = route IM, 3 h (muscle), DSPE-PEG5000:DSPC:Chol:compound 1.40:11.15:38.95:48.50, N/P 30
[21] = route IM, 3 h (spleen), DSPE-PEG5000:DSPC:Chol:compound 1.40:11.15:38.95:48.50, N/P 30
[22] = route IM, 6 h (live), DSPE-PEG5000:DSPC:Chol:compound 1.40:11.15:38.95:48.50, N/P 30
[23] = route IM, 6 h (lung), DSPE-PEG5000:DSPC:Chol:compound 1.40:11.15:38.95:48.50, N/P 30
[24] = route IM, 6 h (muscle), DSPE-PEG5000:DSPC:Chol:compound 1.40:11.15:38.95:48.50, N/P 30
[25] = route IM, 6 h (spleen), DSPE-PEG5000:DSPC:Chol:compound 1.40:11.15:38.95:48.50, N/P 30

Compound: CCCCCCCCC(CCCCCC)C(=O)NCCOC(=O)C(O)CN(CCN(C)CCN(CC(O)C(=O)OCCNC(=O)C(CCCCCC)CCCCCCCC)CC(O)C(=O)OCCNC(=O)C(CCCCCC)CCCCCCCC)CC(O)C(=O)OCCNC(=O)C(CCCCCC)CCCCCCCC (centres unmarked) [Compound L0374]
- IVIS [1]: 6.46E+07

Compound: CCCCCCCCN(C)C(=O)C(O)CN(CCCN(C)CCCN(CC(O)C(=O)N(C)CCCCCCCC)CC(O)C(=O)N(C)CCCCCCCC)CC(O)C(=O)N(C)CCCCCCCC (centres unmarked) [Compound L0350]
- IVIS [1]: 1.75E+05
- IVIS [2]: 8.43E+06
- % of organ targeting [3]: 0.95%
- IVIS [3]: 2.94E+05
- % of organ targeting [4]: 96.29%
- IVIS [4]: 2.99E+07
- % of organ targeting [5]: 2.76%
- IVIS [5]: 8.57E+05

Compound: CCCCCCCC(CCCCCCC)OC(=O)CCCNC(=O)C(O)CN(CCCN(C)CCCN(CC(O)C(=O)NCCCC(=O)OC(CCCCCCC)CCCCCCC)CC(O)C(=O)NCCCC(=O)OC(CCCCCCC)CCCCCCC)CC(O)C(=O)NCCCC(=O)OC(CCCCCCC)CCCCCCC (centres unmarked) [Compound L0382]
- % of organ targeting [6]: 35.27%
- IVIS [6]: 5.75E+04
- % of organ targeting [7]: 7.39%
- IVIS [7]: 1.20E+04
- IVIS [8]: 4.83E+07
- % of organ targeting [9]: 57.34%
- IVIS [9]: 9.34E+04
- IVIS [2]: 1.60E+09
- % of organ targeting [3]: 67.69%
- IVIS [3]: 3.25E+08
- % of organ targeting [4]: 9.82%
- IVIS [4]: 4.72E+07
- % of organ targeting [5]: 22.49%
- IVIS [5]: 1.08E+08

Compound: CCCCCCCCC(CCCCCC)C(=O)NCCOC(=O)C(O)CN(CCCN(C)CCCN(CC(O)C(=O)OCCNC(=O)C(CCCCCC)CCCCCCCC)CC(O)C(=O)OCCNC(=O)C(CCCCCC)CCCCCCCC)CC(O)C(=O)OCCNC(=O)C(CCCCCC)CCCCCCCC (centres unmarked) [Compound L0373]
- IVIS [1]: 8.38E+06
- IVIS [2]: 7.79E+07
- % of organ targeting [3]: 11.58%
- IVIS [3]: 9.41E+06
- % of organ targeting [4]: 13.53%
- IVIS [4]: 1.10E+07
- % of organ targeting [5]: 74.89%
- IVIS [5]: 6.08E+07

Compound: CCCCCCCCCCCCNC(=O)C(CN(CCCN(C)CCCN(CC(OC(=O)CCCCC)C(=O)NCCCCCCCCCCCC)CC(OC(=O)CCCCC)C(=O)NCCCCCCCCCCCC)CC(OC(=O)CCCCC)C(=O)NCCCCCCCCCCCC)OC(=O)CCCCC (centres unmarked) [Compound L0389]
- IVIS [1]: 1.99E+04
- IVIS (route IV, organ not given, formulation, molar ratio and N/P as in the table): 2.50E+05

Compound: CCCCCCC(CCCCCC)C(=O)NCCNC(=O)C(O)CN(CCN(C)CCN(CC(O)C(=O)NCCNC(=O)C(CCCCCC)CCCCCC)CC(O)C(=O)NCCNC(=O)C(CCCCCC)CCCCCC)CC(O)C(=O)NCCNC(=O)C(CCCCCC)CCCCCC (centres unmarked) [Compound L0380]
- % of organ targeting [6]: 61.06%
- IVIS [6]: 3.14E+07
- % of organ targeting [7]: 1.54%
- IVIS [7]: 7.90E+05
- IVIS [8]: 4.58E+08
- % of organ targeting [9]: 37.40%
- IVIS [9]: 1.92E+07
- IVIS [2]: 7.98E+09
- % of organ targeting [3]: 96.36%
- IVIS [3]: 2.14E+09
- % of organ targeting [4]: 0.40%
- IVIS [4]: 8.80E+06
- % of organ targeting [5]: 3.24%
- IVIS [5]: 7.18E+07

Compound: CCCCCCC(CCCCCC)C(=O)NCCOC(=O)C(O)CN(CCCN(C)CCCN(CC(O)C(=O)OCCNC(=O)C(CCCCCC)CCCCCC)CC(O)C(=O)OCCNC(=O)C(CCCCCC)CCCCCC)CC(O)C(=O)OCCNC(=O)C(CCCCCC)CCCCCC (centres unmarked) [Compound L0361]
- IVIS (route IH, organ: body, DSPE-PEG5000:DSPC:Chol:compound 1.40:11.15:38.95:48.50, N/P 30): 1.54E+08
- IVIS (route IH, organ: spleen, DSPE-PEG5000:DSPC:Chol:compound 1.40:11.15:38.95:48.50, N/P 30): 3.59E+04
- % of organ targeting [10]: 63.15%
- IVIS [10]: 6.62E+05
- % of organ targeting [11]: 4.17%
- IVIS [11]: 4.37E+04
- IVIS [12]: 1.07E+08
- % of organ targeting [13]: 31.03%
- IVIS [13]: 3.25E+05
- % of organ targeting [14]: 58.75%
- IVIS [14]: 7.54E+06
- % of organ targeting [15]: 1.27%
- IVIS [15]: 1.63E+05
- IVIS [16]: 1.87E+08
- % of organ targeting [17]: 37.18%
- IVIS [17]: 4.77E+06
- % of organ targeting [18]: 42.49%
- IVIS [18]: 4.54E+06
- % of organ targeting [19]: 4.98%
- IVIS [19]: 5.32E+05
- IVIS [20]: 2.97E+08
- % of organ targeting [21]: 50.95%
- IVIS [21]: 5.45E+06
- % of organ targeting [22]: 52.52%
- IVIS [22]: 1.17E+07
- % of organ targeting [23]: 2.72%
- IVIS [23]: 6.06E+05
- IVIS [24]: 2.62E+08
- % of organ targeting [25]: 42.27%
- IVIS [25]: 9.42E+06
- IVIS [1]: 1.14E+08
- IVIS [2]: 4.99E+07
- IVIS [3]: 1.24E+07
- IVIS [4]: 1.36E+07
- IVIS [5]: 5.05E+07

Compound: CCCCCCCCCCCCCCN(C)C(=O)C(O)CN(CCCN(C)CCCN(CC(O)C(=O)N(C)CCCCCCCCCCCCCC)CC(O)C(=O)N(C)CCCCCCCCCCCCCC)CC(O)C(=O)N(C)CCCCCCCCCCCCCC (centres unmarked) [Compound L0355]
- IVIS [1]: 2.41E+06
- IVIS [2]: 9.52E+06
- % of organ targeting [3]: 1.66%
- IVIS [3]: 2.63E+05
- % of organ targeting [4]: 84.86%
- IVIS [4]: 1.34E+07
- % of organ targeting [5]: 13.48%
- IVIS [5]: 2.13E+06

Compound: CCCCCCCCCCN(C)C(=O)C(O)CN(CCCN(CC(O)C(=O)N(C)CCCCCCCCCC)CC(O)C(=O)N(C)CCCCCCCCCC)CCCN(CC(O)C(=O)N(C)CCCCCCCCCC)CC(O)C(=O)N(C)CCCCCCCCCC (centres unmarked) [Compound L0353]
- IVIS [1]: 1.68E+07
- IVIS [2]: 1.21E+08
- % of organ targeting [3]: 31.60%
- IVIS [3]: 3.54E+07
- % of organ targeting [4]: 2.97%
- IVIS [4]: 3.33E+06
- % of organ targeting [5]: 65.43%
- IVIS [5]: 7.33E+07

Compound: CCCCCCC(CCCCCC)C(=O)OCCCCNC(=O)C(O)CN(CCN(C)CCN(CC(O)C(=O)NCCCCOC(=O)C(CCCCCC)CCCCCC)CC(O)C(=O)NCCCCOC(=O)C(CCCCCC)CCCCCC)CC(O)C(=O)NCCCCOC(=O)C(CCCCCC)CCCCCC (centres unmarked) [Compound L0368]
- % of organ targeting [10]: 39.42%
- IVIS [10]: 3.95E+05
- % of organ targeting [11]: 5.12%
- IVIS [11]: 5.13E+04
- IVIS [12]: 8.19E+07
- % of organ targeting [13]: 42.92%
- IVIS [13]: 4.30E+05
- % of organ targeting [14]: 70.91%
- IVIS [14]: 6.97E+06
- % of organ targeting [15]: 1.59%
- IVIS [15]: 1.57E+05
- IVIS [16]: 2.25E+08
- % of organ targeting [17]: 26.79%
- IVIS [17]: 2.64E+06
- % of organ targeting [18]: 51.88%
- IVIS [18]: 5.57E+06
- % of organ targeting [19]: 1.77%
- IVIS [19]: 1.89E+05
- IVIS [20]: 5.02E+08
- % of organ targeting [21]: 27.68%
- IVIS [21]: 2.97E+06
- % of organ targeting [22]: 52.87%
- IVIS [22]: 1.53E+07
- % of organ targeting [23]: 1.75%
- IVIS [23]: 5.04E+05
- IVIS [24]: 1.32E+08
- % of organ targeting [25]: 42.92%
- IVIS [25]: 1.24E+07
- IVIS [1]: 9.91E+07
- IVIS [2]: 6.34E+07
- % of organ targeting [3]: 18.05%
- IVIS [3]: 1.00E+07
- % of organ targeting [4]: 7.99%
- IVIS [4]: 4.43E+06
- % of organ targeting [5]: 73.95%
- IVIS [5]: 4.10E+07
